These compounds were tested against unphosphorylated-BTK kinase domain (UP-BTK), GST-tagged human BTK (389-659aa) (Homo sapiens (Human), UniProt Q06187) (assay: BTK kinase Lanthascreen binding assay). Conditions: Lanthascreen tracer competition, 60 minutes incubation; pIC50 = negative log of the IC50 in molar.
How it was run: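 Lanthascreen competition binding; test compound vs fluorescent tracer on unphosphorylated BTK. Output: pIC50 (−log IC50, M).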

unphosphorylated-BTK kinase domain (UP-BTK), GST-tagged human BTK (389-659aa), sequence (Q06187 389-659): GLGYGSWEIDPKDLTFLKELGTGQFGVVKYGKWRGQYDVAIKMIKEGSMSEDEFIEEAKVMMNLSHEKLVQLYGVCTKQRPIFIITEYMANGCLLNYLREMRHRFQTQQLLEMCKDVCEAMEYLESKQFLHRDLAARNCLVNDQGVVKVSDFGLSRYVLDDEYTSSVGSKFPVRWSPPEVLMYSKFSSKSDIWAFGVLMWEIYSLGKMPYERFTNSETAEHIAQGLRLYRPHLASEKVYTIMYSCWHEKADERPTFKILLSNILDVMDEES

SMILES | BTK_I_binding pIC50
O=C(NC1CCN(C(=O)/C=C/CO)CC1)c1sc2nccc3c2c1NC(=O)N3c1ccc(Oc2ccccc2)cc1 [Example 596, (E)-N-(1-(4-Hydroxybut-2-enoyl)piperidin-4-yl)-4-oxo-5-(4-phenoxyphenyl)-4,5-dihydro-3H-1-thia-3,5,8-triazaacenaphthylene-2-carboxamide] | 6.9
Cc1cc(Oc2ccccc2)ccc1N1C(=O)Nc2c(NC(=O)C3CCCN(C(=O)/C(C#N)=C/C4CC4)C3)sc3nccc1c23 (stereo not shown) [Example 801, (E)-1-(2-Cyano-3-cyclopropylacryloyl)-N-(5-(2-methyl-4-phenoxyphenyl)-4-oxo-4,5-dihydro-3H-1-thia-3,5,8-triazaacenaphthylen-2-yl)piperidine-3-carboxamide] | 6.2
C=CC(=O)N1CCC[C@@H](NC(=O)c2sc3nccc4c3c2NC(=O)N4c2cnc(Oc3ccccc3)cc2C)C1 (single isomer, unassigned) [Example 662, (R)—N-(1-Acryloylpiperidin-3-yl)-5-(*S)-(4-methyl-6-phenoxypyridin-3-yl)-4-oxo-4,5-dihydro-3H-1-thia-3,5,8-triazaacenaphthylene-2-carboxamide] | 8.1
C=CC(=O)N1CC[C@@H](NC(=O)c2sc3nccc4c3c2NC(=O)N4c2ccc(Oc3ccccn3)cc2C)C1 [Example 781, (R)—N-(1-Acryloylpyrrolidin-3-yl)-5-(2-methyl-4-(pyridin-2-yloxy)phenyl)-4-oxo-4,5-dihydro-3H-1-thia-3,5,8-triazaacenaphthylene-2-carboxamide] | 7.4
O=C(N[C@@H]1CCCNC1)c1sc2nccc3c2c1NC(=O)N3c1cccc(-c2ccccc2)n1 [Example 623, (R)-4-Oxo-5-(6-phenylpyridin-2-yl)-N-(piperidin-3-yl)-4,5-dihydro-3H-1-thia-3,5,8-triazaacenaphthylene-2-carboxamide] | <6

Same assay, conditions: pIC50 = negative log of the IC50 in molar; 60 minutes incubation, 50 nM Tracer 236

SMILES | BTK_I_binding pIC50
Cc1cc(Oc2ccccc2)ccc1N1C(=O)Nc2c(C(=O)NC3CCCN(C#N)CC3)sc3nccc1c23 (stereo not shown) [Example 189, N-(1-Cyanoazepan-4-yl)-5-(2-methyl-4-phenoxyphenyl)-4-oxo-4,5-dihydro-3H-1-thia-3,5,8-triazaacenaphthylene-2-carboxamide] | 6.6
Cc1cc(Oc2ccccc2)ccc1N1C(=O)Nc2c(C(=O)N[C@@H]3CCCN(C(=O)/C(C#N)=C/C4(C)COC4)C3)sc3nccc1c23 [Example 21, (R,E)-N-(1-(2-cyano-3-(3-methyloxetan-3-yl)acryloyl)piperidin-3-yl)-5-(2-methyl-4-phenoxyphenyl)-4-oxo-4,5-dihydro-3H-1-thia-3,5,8-triazaacenaphthylene-2-carboxamide] | 7.7
Cc1cc(Oc2ccccc2)ccc1N1C(=O)Nc2c(C(=O)N[C@@H]3CCCN(C(=O)[C@H]4CCOC4)C3)sc3nccc1c23 [Example 207, 5-(2-Methyl-4-phenoxyphenyl)-4-oxo-N—((R)-1-((S)-tetrahydrofuran-3-carbonyl)piperidin-3-yl)-4,5-dihydro-3H-1-thia-3,5,8-triazaacenaphthylene-2-carboxamide] | 7.1
CCOc1ccc(N2C(=O)Nc3c(C(=O)N[C@@H]4CCCN(C(=O)/C(C#N)=C/C5CC5)C4)sc4nccc2c34)c(C)c1 [Example 193, (R,E)-N-(1-(2-Cyano-3-cyclopropylacryloyl)piperidin-3-yl)-5-(4-ethoxy-2-methylphenyl)-4-oxo-4,5-dihydro-3H-1-thia-3,5,8-triazaacenaphthylene-2-carboxamide] | 7.3
Cc1cc(Oc2ccccc2)ccc1N1C(=O)Nc2c(C(=O)N[C@@H]3CCCN(C(=O)/C(C#N)=C/C(C)(C)N4CCOCC4)C3)sc3nccc1c23 (single isomer, unassigned) [Example 43, (R,E)-N-(1-(2-Cyano-4-methyl-4-morpholinopent-2-enoyl)piperidin-3-yl)-5-(*S)-(2-methyl-4-phenoxyphenyl)-4-oxo-4,5-dihydro-3H-1-thia-3,5,8-triazaacenaphthylene-2-carboxamide] | 7.2

Same assay, conditions: unphosphorylated-BTK kinase domain, 50 nM Tracer 236, 60 minutes; pIC50 = negative log of the IC50 in molar

SMILES | BTK_I_binding pIC50
C=CC(=O)N1CCC[C@@H](NC(=O)c2sc3nccc4c3c2NC(=O)N4c2ccc(OC(C)C)cc2)C1 [Example 400, (R)—N-(1-Acryloylpiperidin-3-yl)-5-(4-isopropoxyphenyl)-4-oxo-4,5-dihydro-3H-1-thia-3,5,8-triazaacenaphthylene-2-carboxamide] | 6.9
CN1CC[C@@H](NC(=O)c2sc3nccc4c3c2NC(=O)N4Cc2ccc(Oc3ccccc3)cc2)C1 [Example 409, (R)—N-(1-Methylpyrrolidin-3-yl)-4-oxo-5-(4-phenoxybenzyl)-4,5-dihydro-3H-1-thia-3,5,8-triazaacenaphthylene-2-carboxamide] | 5.0
C=CC(=O)N1CCC[C@@H](NC(=O)c2sc3nccc4c3c2NC(=O)N4c2cccc(C3CCC3)c2)C1 [Example 534, (R)—N-(1-Acryloylpiperidin-3-yl)-5-(3-cyclobutylphenyl)-4-oxo-4,5-dihydro-3H-1-thia-3,5,8-triazaacenaphthylene-2-carboxamide] | 7.8
C=CS(=O)(=O)N1CCC[C@@H](NC(=O)c2sc3nccc4c3c2NC(=O)N4c2ccc(Oc3ccccc3)cc2C)C1 (single isomer, unassigned) [Example 530, (R)-5-(*S)-(2-Methyl-4-phenoxyphenyl)-4-oxo-N-(1-(vinylsulfonyl)piperidin-3-yl)-4,5-dihydro-3H-1-thia-3,5,8-triazaacenaphthylene-2-carboxamide] | 8.0
Cc1cc(Oc2ccccc2)ccc1N1C(=O)Nc2c(C(=O)NCC3CCN(C)C3)sc3nccc1c23 (stereo not shown) [Example 282, 5-(2-Methyl-4-phenoxyphenyl)-N-((1-methylpyrrolidin-3-yl)methyl)-4-oxo-4,5-dihydro-3H-1-thia-3,5,8-triazaacenaphthylene-2-carboxamide] | 6.2
C=CC(=O)N1CCC[C@@H](NC(=O)c2sc3nccc4c3c2NC(=O)N4c2cccc(-c3ccccc3)c2)C1 [Example 421, (R)-5-([1,1′-Biphenyl]-3-yl)-N-(1-acryloylpiperidin-3-yl)-4-oxo-4,5-dihydro-3H-1-thia-3,5,8-triazaacenaphthylene-2-carboxamide] | 7.9
O=C(N[C@H]1CNC[C@@H]1O)c1sc2nccc3c2c1NC(=O)N3c1ccc(Oc2ccccc2)cc1 [Example 464, N-((3S,4S)-4-Hydroxypyrrolidin-3-yl)-4-oxo-5-(4-phenoxyphenyl)-4,5-dihydro-3H-1-thia-3,5,8-triazaacenaphthylene-2-carboxamide] | 6.8
CNCC(=O)N1CCC[C@@H](NC(=O)c2sc3nccc4c3c2NC(=O)N4c2ccc(Oc3ccccc3)cc2)C1 [Example 546, (R)—N-(1-(2-(Methylamino)acetyl)piperidin-3-yl)-4-oxo-5-(4-phenoxyphenyl)-4,5-dihydro-3H-1-thia-3,5,8-triazaacenaphthylene-2-carboxamide] | 7.4
CO[C@@H]1CNC[C@H](NC(=O)c2sc3nccc4c3c2NC(=O)N4c2ccc(Oc3ccccc3)cc2C)C1 (relative stereo) [Example 467, N-((3R,5S)-5-Methoxypiperidin-3-yl)-5-(*S)-(2-methyl-4-phenoxyphenyl)-4-oxo-4,5-dihydro-3H-1-thia-3,5,8-triazaacenaphthylene-2-carboxamide] | 7.0
C=CC(=O)N1CCC[C@@H](NC(=O)c2sc3nccc4c3c2NC(=O)N4c2ccc3sccc3c2)C1 [Example 404, (R)—N-(1-Acryloylpiperidin-3-yl)-5-(benzo[b]thiophen-5-yl)-4-oxo-4,5-dihydro-3H-1-thia-3,5,8-triazaacenaphthylene-2-carboxamide] | 6.1
COC[C@@H](C)C(=O)N1CCC[C@@H](NC(=O)c2sc3nccc4c3c2NC(=O)N4c2ccc(Oc3ccccc3)cc2C)C1 [Example 571, N—((R)-1-((R)-3-Methoxy-2-methylpropanoyl)piperidin-3-yl)-5-(2-methyl-4-phenoxyphenyl)-4-oxo-4,5-dihydro-3H-1-thia-3,5,8-triazaacenaphthylene-2-carboxamide] | 7.0
Cc1cc(Oc2ccccn2)ccc1N1C(=O)Nc2c(C(=O)N[C@@H]3CCCN(C)C3)sc3nccc1c23 [Example 306, (R)-5-(2-Methyl-4-(pyridin-2-yloxy)phenyl)-N-(1-methylpiperidin-3-yl)-4-oxo-4,5-dihydro-3H-1-thia-3,5,8-triazaacenaphthylene-2-carboxamide] | 6.0
C/C=C\C(=O)N1CCC[C@@H](NC(=O)c2sc3nccc4c3c2NC(=O)N4c2ccc(Oc3ccccc3)cc2C)C1 (single isomer, unassigned) [Example 476, (R,*Z)—N-(1-(But-2-enoyl)piperidin-3-yl)-5-(*S)-(2-methyl-4-phenoxyphenyl)-4-oxo-4,5-dihydro-3H-1-thia-3,5,8-triazaacenaphthylene-2-carboxamide] | 7.4

Same assay, conditions: unphosphorylated-BTK kinase domain, 60 minutes incubation, 50 nM Tracer 236; pIC50 = negative log of the IC50 in molar

SMILES | BTK_I_binding pIC50
O=C(NC1CCNC1)c1sc2nccc3c2c1NC(=O)N3c1ccc(Oc2ccccc2)cc1 (stereo in doubt) [Example 934, (S)-4-Oxo-5-(4-phenoxyphenyl)-N-(pyrrolidin-3-yl)-4,5-dihydro-3H-1-thia-3,5,8-triazaacenaphthylene-2-carboxamide] | 6.1
C=CC(=O)N1CCC[C@@H](NC(=O)c2sc3nccc4c3c2NC(=O)N4c2cc(Cl)cc(Cl)c2)C1 [Example 941, (R)—N-(1-Acryloylpiperidin-3-yl)-5-(3,5-dichlorophenyl)-4-oxo-4,5-dihydro-3H-1-thia-3,5,8-triazaacenaphthylene-2-carboxamide] | 5.8

Source: patent US10800792B2, “Inhibitors of Bruton's tyrosine kinase and method of their use” (JANSSEN PHARMACEUTICA NV, priority 2015, dated 2020)
